In US20130231334A1, “METHODS OF CONTROLLING NEONICOTINOID RESISTANT APHIDS” (SYNGENTA CROP PROTECTION LLC, priority 2010, published 2013):

Key:
Assay type in all cases: in vivo
[1] = tested on: neonicotinoid insecticide susceptible strain 4106A; test: Leaf disc spray bioassay on chinese cabbage, aphid mortality (Example 1), susceptible strain; conditions: susceptible strain 4106A (Rothamsted Research), mixed age aphids, mortality 72 hours after treatment
Protocol: (§1) 5 cm leaf discs were taken from fully expanded chinese cabbage leaves and placed with the underside facing upwards onto water agar in 5 cm Petri dishes. The leaf discs are infested with between 30 and 40 mixed age aphids 24 hours prior to insecticide treatment. The leaf surface is sprayed with the appropriate test solutions in a Burkhard Potter Tower at an approximate water volume of […]. Test containers are stored at 21° C., 60% RH and 16:8 light/dark. Aphids were assessed for mortality 72 hours after treatment.

[2] = tested on: neonicotinoid insecticide resistant aphid strain; test: Leaf disc spray bioassay on chinese cabbage, aphid mortality (Example 1), resistant strain; conditions: resistant aphid strain from peach orchard, Avignon region, mixed age aphids, mortality 72 hours after treatment
Protocol: as §1

[3] = tested on: susceptible or neonicotinoid-resistant Myzus persicae population; test: Pea seedling spray test, mortality of susceptible and neonicotinoid-resistant populations (Example 2); conditions: ratio of rates for 80% mortality, resistant versus susceptible Myzus persicae; BP80 = lowest known rate providing 80% or more mortality; 6 days after treatment; pea seedlings
Protocol: Pea seedlings, infested with a susceptible or neonicotinoid-resistant Myzus persicae population of mixed ages, respectively, are treated with the test solutions (200, 50, 12.5, 3, 0.8, 0.2, 0.05 ppm a.i.) in a turn table spray chamber. 6 days after treatment, samples are checked for mortality.
The results of the resistance factor at BP80 (lowest known rate providing 80% or more mortality) are indicated below.

Structure (SMILES) | LC50 with 95% confidence limit, susceptible strain [1] | LC50 with 95% confidence limit, resistant strain [2] | resistance factor at BP80 [3]
CN/C(=N/CC1CCOC1)N[N+](=O)[O-] (stereo not drawn) [dinotefuran] | 9.95 (8.21-12.5) ppm | 538 (435-696) ppm | –
O=C(NCc1ccc(Cl)cc1)c1cnccc1C(F)(F)F [158063-19-5] | – | – | >16
CNC(=O)c1cnccc1C(F)(F)F [158062-76-1] | – | – | 1
CO/N=C(\C)CNC(=O)c1cnccc1C(F)(F)F | – | – | 4
O=C(c1cnccc1C(F)(F)F)N(O)Cc1ccccc1 [323181-02-8] | – | – | >1
O=C(N=S(c1ccccc1)c1ccccc1)c1cnccc1C(F)(F)F [362724-14-9] | – | – | 4
N#C/N=C1\SCCN1Cc1ccc(Cl)nc1 [thiacloprid] | 0.38 (0.34-0.42) ppm | >1000 ppm | –
Cc1noc(-c2cnccc2C(F)(F)F)n1 [276684-49-2] | – | – | <1
CN1COCN(Cc2cnc(Cl)s2)/C1=N/[N+](=O)[O-] [thiamethoxam] | 0.35 (0.3-0.41) ppm | 148 (128-172) ppm | >250
CN(O)C(=O)c1cnccc1C(F)(F)F [323180-93-4] | – | – | Not adequate control for 80% mortality on sensitive & resistance strains
CN(C)C(=O)c1cnccc1C(F)(F)F [158063-01-5] | – | – | 1.7
C/C(=N\C#N)N(C)Cc1ccc(Cl)nc1 [acetamiprid] | 0.55 (0.51-0.59) ppm | 49.3 (35.2-72.0) ppm | –
O=C(NCc1ccccn1)c1cnccc1C(F)(F)F [164149-37-5] | – | – | 4
O=C(NCN1CCCC1)c1cnccc1C(F)(F)F [158063-50-4] | – | – | 1
CN/C(=N\[N+](=O)[O-])NCc1cnc(Cl)s1 [clothianidin] | 0.33 (0.28-0.38) ppm | 904 (478-3616) ppm | –
CC(C)N1CN=C(c2cnccc2C(F)(F)F)OC1=O [1098412-17-9] | – | – | 1
CCN(Cc1ccc(Cl)nc1)/C(=C/[N+](=O)[O-])NC [nitenpyram] | 1.26 (1.03-1.61) ppm | 237 (93.7-3566) ppm | –
NC(=O)c1cnccc1C(F)(F)F [158062-71-6] | – | – | 4
N#CCNC(=O)c1cnccc1C(F)(F)F [flonicamid] | 1.65 (1.3-2.09) ppm | 2.74 (0.53-6.81) ppm | –
